Results reported in patent US20240390295A1, “METHODS FOR TREATING DEPRESSION” (JANSSEN PHARMACEUTICA NV, priority 2020, published 2024).
Values joined by “and” are separate entries in the source; they are usually repeats but may differ in a detail not shown here. Equal entries are not always repeated.

System: adult patients (aged 18-64 years) with TRD
Assay: Maximum time to onset of clinician-reported adverse events by AE week 1/week 4 occurrence (Tables 5-16; modal dose 56, modal dose 84, Total)
Format: in vivo, human
Conditions: for Blood Pressure (clinician): n >60 m / Blood Pressure (clinician): 31-60 m / Blood Pressure (clinician): 61-90 m / Blood Pressure (clinician): % >60 m / Blood Pressure (clinician): TOTAL / Dissociation (clinician), % >60 m / Dizziness, % >60 m / Sedation, % >60 m / Vertigo, % >60 m: Based on Week 4; for Sedation(clinician-reported), n (%) / Vertigo(clinician-reported), n (%) / Dissociation(clinician-reported), n (%) / Blood pressure increased (clinician-reported), n (%) / Dizziness(clinician-reported), n (%): listed as ESK
Description: Patients were monitored for >90 minutes after ESK administration at each treatment session, after which time they could leave the clinical site at the clinician's discretion. AEs were monitored and reported, and safety assessments, including clinical laboratory tests and physical examinations, were conducted throughout the study. Clinician-reported AEs were categorized as mild, moderate, or severe based on clinical judgement (Table 1).
Since flexible dosing (ESK 56 or 84 mg) was permitted in the studies and an individual patient's doses could change within dosing timeframes, patients were stratified by modal dose during the respective periods.
The time to onset of the adverse events experienced by patients in Example 2 was analyzed. Tables 5-11 include the summary of specific adverse events by their respective categorized maximum time to Onset (i) across sessions 3-8 during Induction Phase by AE week 1 occurrence (Table 5), (ii) during Optimization Phase by AE week 1 occurrence (Table 6), (iii) during Optimization Phase by AE week 4 occurrence (Table 7), (iv) during Month 3-6 of Maintenance Phase by AE week 1 occurrence (Table 8), (v) Month 3-6 of Maintenance Phase by AE week 4 occurrence (Table 9), (vi) Month 6-12 of Maintenance Phase by AE week 1 occurrence (Table 10), and (vii) during Month 6-12 of Maintenance Phase by AE week 4 (Table 11).
Tables 12-16 include the incidences of clinician-reported blood pressure (Table 12), clinician-reported dissociation (Table 13), dizziness (Table 14), sedation (Table 15), and vertigo (Table 16) spanning week 1 to month 12 using the data of Example 2.

[1] = Induction Phase sessions 3-8, AE week 1 None
[2] = Induction Phase sessions 3-8, AE week 1 Once
[3] = Induction Phase sessions 3-8, AE week 1 Twice
[4] = Month 3-6 Maintenance, AE week 1 None, onset missing
[5] = Month 3-6 Maintenance, AE week 4 None, onset 31-60 minutes
[6] = Month 3-6 Maintenance, AE week 4 None, onset missing
[7] = Month 6-12 Maintenance, AE week 4 Once
[8] = Month 6-12 Maintenance, AE week 4 Twice, onset 31-60 minutes
[9] = Optimization Phase, AE week 1 Once
[10] = Optimization Phase, AE week 4 None

Compound: CN[C@]1(c2ccccc2Cl)CCCCC1=O [esketamine, (S)-2-(2-chlorophenyl)-2-(methylamino)cyclohexanone]
- Blood Pressure (clinician): n >60 m (None, Month 3-6): 1
- Blood Pressure (clinician): 31-60 m (None, Month 6-12): 6
- Blood Pressure (clinician): 61-90 m (None, Month 6-12): 1
- Blood Pressure (clinician): % >60 m (None, Month 6-12): 12.5%
- Blood Pressure (clinician): TOTAL (None, Month 6-12): 8
- Blood Pressure (clinician): n >60 m (None, Month 6-12): 1
- Blood Pressure (clinician): 31-60 m (Once, Month 2): 9
- Blood Pressure (clinician): % >60 m (Once, Month 2): 0%
- Blood Pressure (clinician): TOTAL (Once, Month 2): 9
- Blood Pressure (clinician): n >60 m (Once, Month 2): 0
- Blood Pressure (clinician): 31-60 m (Once, Month 3-6): 5
- Blood Pressure (clinician): % >60 m (Once, Month 3-6): 0%
- Blood Pressure (clinician): TOTAL (Once, Month 3-6): 5
- Blood Pressure (clinician): n >60 m (Once, Month 3-6): 0
- Blood Pressure (clinician): 31-60 m (Once, Month 6-12): 3
- Blood Pressure (clinician): % >60 m (Once, Month 6-12): 0%
- Blood Pressure (clinician): TOTAL (Once, Month 6-12): 3
- Blood Pressure (clinician): n >60 m (Once, Month 6-12): 0
- Blood Pressure (clinician): 31-60 m (Twice, Month 2): 9
- Blood Pressure (clinician): % >60 m (Twice, Month 2): 0%
- Blood Pressure (clinician): TOTAL (Twice, Month 2): 9
- Blood Pressure (clinician): n >60 m (Twice, Month 2): 0
- Blood Pressure (clinician): 31-60 m (Twice, Month 3-6): 2
- Blood Pressure (clinician): 61-90 m (Twice, Month 3-6): 1
- Blood Pressure (clinician): % >60 m (Twice, Month 3-6): 33.3%
- Blood Pressure (clinician): TOTAL (Twice, Month 3-6): 3
- Blood Pressure (clinician): n >60 m (Twice, Month 3-6): 1
- Blood Pressure (clinician): 31-60 m (Twice, Month 6-12): 2
- Blood Pressure (clinician): % >60 m (Twice, Month 6-12): 0%
- Blood Pressure (clinician): TOTAL (Twice, Month 6-12): 2
- Blood Pressure (clinician): n >60 m (Twice, Month 6-12): 0
- Dissociation (clinician), % >60 m (incidence None, Month 2): 0%
- Dizziness, % >60 m (incidence None, Month 2): 8.6%
- Sedation, % >60 m (incidence None, Month 2): 0%
- Vertigo, % >60 m (incidence None, Month 2): 12%
- Dissociation (clinician), % >60 m (incidence None, Month 3-6): 2.6%
- Dizziness, % >60 m (incidence None, Month 3-6): 2.1%
- Sedation, % >60 m (incidence None, Month 3-6): 14.3%
- Vertigo, % >60 m (incidence None, Month 3-6): 13.6%
- Dissociation (clinician), % >60 m (incidence None, Month 6-12): 4.2%
- Dizziness, % >60 m (incidence None, Month 6-12): 0%
- Sedation, % >60 m (incidence None, Month 6-12): 0%
- Vertigo, % >60 m (incidence None, Month 6-12): 0%
- Dissociation (clinician), % >60 m (incidence Once, Month 2): 4.8%
- Dizziness, % >60 m (incidence Once, Month 2): 3.7%
- Sedation, % >60 m (incidence Once, Month 2): 0%
- Vertigo, % >60 m (incidence Once, Month 2): 4.3%
- Dissociation (clinician), % >60 m (incidence Once, Month 3-6): 6.7%
- Dizziness, % >60 m (incidence Once, Month 3-6): 0%
- Sedation, % >60 m (incidence Once, Month 3-6): 0%
- Vertigo, % >60 m (incidence Once, Month 3-6): 0%
- Dissociation (clinician), % >60 m (incidence Once, Month 6-12): 0%
- Dizziness, % >60 m (incidence Once, Month 6-12): 0%
- Sedation, % >60 m (incidence Once, Month 6-12): 0%
- Vertigo, % >60 m (incidence Once, Month 6-12): 25%
- Dissociation (clinician), % >60 m (incidence Twice, Month 2): 0%
- Dizziness, % >60 m (incidence Twice, Month 2): 3.8%
- Sedation, % >60 m (incidence Twice, Month 2): 0%
- Vertigo, % >60 m (incidence Twice, Month 2): 0%
- Dissociation (clinician), % >60 m (incidence Twice, Month 3-6): 3%
- Dizziness, % >60 m (incidence Twice, Month 3-6): 3%
- Sedation, % >60 m (incidence Twice, Month 3-6): 0%
- Vertigo, % >60 m (incidence Twice, Month 3-6): 9.5%
- Dissociation (clinician), % >60 m (incidence Twice, Month 6-12): 0%
- Dizziness, % >60 m (incidence Twice, Month 6-12): 5.9%
- Sedation, % >60 m (incidence Twice, Month 6-12): 0%
- Vertigo, % >60 m (incidence Twice, Month 6-12): 0%
- Blood pressure increased: time to onset 31-60 minutes [1]: 10 (90.9%) and 10 (100%) and 20 (95.2%)
- Sedation: time to onset 31-60 minutes [1]: 2 (22.2%) and 2 (20.0%) and 4 (21.1%)
- Sedation: time to onset >90 minutes [1]: 1 (11.1%) and 1 (10.0%) and 2 (10.5%)
- Vertigo: time to onset 61-90 minutes [1]: 1 (3.3%) and 1 (6.7%) and 2 (4.4%)
- Dizziness: time to onset 31-60 minutes [2]: 4 (12.1%) and 4 (17.4%) and 8 (14.3%)
- Dizziness: time to onset 61-90 minutes [2]: 1 (3.0%) and 1 (4.3%) and 2 (3.6%)
- Vertigo: time to onset >90 minutes [2]: 1 (9.1%) and 1 (5.6%) and 2 (6.9%)
- Dissociation: time to onset 61-90 minutes [3]: 2 (5.6%) and 2 (7.1%) and 4 (6.3%)
- Dizziness: time to onset >90 minutes [3]: 1 (2.8%) and 1 (2.5%) and 2 (2.6%)
- Sedation(clinician-reported), n (%) (Month 3-6 Maintenance, AE week 1 None, onset 31-60 minutes): 1 (20.0%) and 1 (8.3%) and 2 (11.8%)
- Vertigo(clinician-reported), n (%) (Month 3-6 Maintenance, AE week 1 None, onset 61-90 minutes): 1 (10.0%) and 1 (12.5%) and 2 (11.1%)
- Dissociation(clinician-reported), n (%) [4]: 1 (5.9%) and 1 (5.3%) and 2 (5.6%)
- Sedation(clinician-reported), n (%) [4]: 1 (20.0%) and 1 (8.3%) and 2 (11.8%)
- Blood pressure increased (clinician-reported), n (%) (Month 3-6 Maintenance, AE week 1 Once): 2 (2.0%) and 2 (1.9%) and 4 (2.0%)
- Blood pressure increased (clinician-reported), n (%) (Month 3-6 Maintenance, AE week 1 Once, onset 31-60 minutes): 2 (100%) and 4 (100%)
- Blood pressure increased (clinician-reported), n (%) (Month 3-6 Maintenance, AE week 1 Twice): 2 (2.0%) and 2 (1.9%) and 4 (2.0%)
- Vertigo(clinician-reported), n (%) (Month 3-6 Maintenance, AE week 1 Twice, onset 0-30 minutes): 11 (91.7%) and 11 (84.6%) and 22 (88.0%)
- Dissociation(clinician-reported), n (%) [5]: 5 (27.8%) and 5 (25.0%) and 10 (26.3%)
- Sedation(clinician-reported), n (%) [5]: 1 (20.0%) and 1 (11.1%) and 2 (14.3%)
- Vertigo(clinician-reported), n (%) (Month 3-6 Maintenance, AE week 4 None, onset 61-90 minutes): 1 (8.3%) and 1 (10.0%) and 2 (9.1%)
- Dissociation(clinician-reported), n (%) [6]: 1 (5.6%) and 1 (5.0%) and 2 (5.3%)
- Dizziness(clinician-reported), n (%) [6]: 2 (6.9%) and 2 (11.1%) and 4 (8.5%)
- Vertigo(clinician-reported), n (%) (Month 3-6 Maintenance, AE week 4 Once): 3 (3.0%) and 3 (2.9%) and 6 (3.0%)
- Vertigo(clinician-reported), n (%) (Month 3-6 Maintenance, AE week 4 Once, onset 0-30 minutes): 3 (100%) and 6 (100%)
- Dizziness(clinician-reported), n (%) (Month 3-6 Maintenance, AE week 4 Once, onset 31-60 minutes): 1 (14.3%) and 1 (16.7%) and 2 (15.4%)
- Vertigo(clinician-reported), n (%) (Month 3-6 Maintenance, AE week 4 Twice, onset 61-90 minutes): 1 (12.5%) and 1 (7.7%) and 2 (9.5%)
- Sedation(clinician-reported), n (%) (Month 6-12 Maintenance, AE week 1 None): 5 (7.5%) and 5 (8.3%) and 10 (7.9%)
- Sedation(clinician-reported), n (%) (Month 6-12 Maintenance, AE week 1 None, onset missing): 1 (20.0%) and 2 (20.0%)
- Dizziness(clinician-reported), n (%) (Month 6-12 Maintenance, AE week 1 Twice): 7 (10.4%) and 7 (11.7%) and 14 (11.0%)
- Vertigo(clinician-reported), n (%) (Month 6-12 Maintenance, AE week 1 Twice, onset 31-60 minutes): 1 (10.0%) and 1 (16.7%) and 2 (12.5%)
- Sedation(clinician-reported), n (%) (Month 6-12 Maintenance, AE week 4 None): 4 (6.0%) and 4 (6.7%) and 8 (6.3%)
- Vertigo(clinician-reported), n (%) (Month 6-12 Maintenance, AE week 4 None, onset 31-60 minutes): 1 (14.3%) and 1 (25.0%) and 2 (18.2%)
- Sedation(clinician-reported), n (%) (Month 6-12 Maintenance, AE week 4 None, onset missing): 1 (25.0%) and 2 (25.0%)
- Sedation(clinician-reported), n (%) [7]: 2 (3.0%) and 2 (3.3%) and 4 (3.1%)
- Vertigo(clinician-reported), n (%) [7]: 2 (3.0%) and 2 (3.3%) and 4 (3.1%)
- Vertigo(clinician-reported), n (%) (Month 6-12 Maintenance, AE week 4 Once, onset 0-30 minutes): 1 (50.0%) and 2 (50.0%)
- Dissociation(clinician-reported), n (%) (Month 6-12 Maintenance, AE week 4 Once, onset 31-60 minutes): 1 (100%) and 1 (12.5%) and 2 (22.2%)
- Blood pressure increased (clinician-reported), n (%) (Month 6-12 Maintenance, AE week 4 Twice): 1 (1.5%) and 1 (1.7%) and 2 (1.6%)
- Blood pressure increased (clinician-reported), n (%) [8]: 1 (100%) and 2 (100%)
- Vertigo(clinician-reported), n (%) [8]: 1 (11.1%) and 1 (16.7%) and 2 (13.3%)
- Dizziness: time to onset >90 minutes [9]: 1 (5.6%) and 1 (6.7%) and 2 (6.1%)
- Sedation: patients with AE [9]: 2 (1.5%) and 2 (1.2%) and 4 (1.3%)
- Vertigo: time to onset 31-60 minutes [9]: 1 (12.5%) and 1 (9.1%) and 2 (10.5%)
- Vertigo: time to onset >90 minutes [9]: 1 (12.5%) and 1 (9.1%) and 2 (10.5%)
- Blood pressure increased: patients with AE [10]: 9 (6.8%) and 9 (5.4%) and 18 (6.0%)
- Dissociation: patients with AE [10]: 23 (17.4%) and 23 (13.8%) and 46 (15.4%)
- Sedation: patients with AE [10]: 5 (3.8%) and 5 (3.0%) and 10 (3.3%)
- Vertigo: time to onset 61-90 minutes [10]: 1 (10.0%) and 1 (6.7%) and 2 (8.0%)
- Dizziness: time to onset 31-60 minutes (Optimization Phase, AE week 4 Once): 1 (9.1%) and 1 (6.3%) and 2 (7.4%)
- Dizziness: time to onset 31-60 minutes (Optimization Phase, AE week 4 Twice): 1 (3.7%) and 1 (3.8%) and 2 (3.8%)
- time at which adverse events (particularly dissociation, increase in blood pressure) generally peak (human, in vivo, other: intranasal): ~40 min
